Results as given in US20100222328A1, “2-CYCLOPROPYL-THIAZOLE DERIVATIVES” (priority 2007, published 2010).
Read-outs that look alike come from different tables or passages of the source.

Columns and labels:
[1] = molecular target: T1, human orexin-2 receptor (Homo sapiens, UniProt O43614); assay: Intracellular calcium measurements (FLIPR), CHO cells expressing the human orexin-2 receptor, orexin-A as agonist; format: cell-based; conditions: 3 nM orexin-A, read-out: OX2 IC50
T1 construct: expressed in transfected cells; host or cells: CHO cells (grown under G418 selection)
T1 sequence (O43614 1-444): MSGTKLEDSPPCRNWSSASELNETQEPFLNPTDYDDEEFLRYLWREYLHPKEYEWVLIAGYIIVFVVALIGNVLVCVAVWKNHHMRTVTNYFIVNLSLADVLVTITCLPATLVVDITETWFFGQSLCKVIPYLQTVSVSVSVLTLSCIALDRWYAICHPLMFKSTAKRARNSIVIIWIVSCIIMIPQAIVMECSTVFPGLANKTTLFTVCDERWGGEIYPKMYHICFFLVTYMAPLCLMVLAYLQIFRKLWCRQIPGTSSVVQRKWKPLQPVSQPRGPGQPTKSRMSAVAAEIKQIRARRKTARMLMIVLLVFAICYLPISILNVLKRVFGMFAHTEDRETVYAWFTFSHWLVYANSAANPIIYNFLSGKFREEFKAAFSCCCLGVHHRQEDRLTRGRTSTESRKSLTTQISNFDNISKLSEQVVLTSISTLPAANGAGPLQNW
Experimental: (§1) The orexin receptor antagonistic activity of the compounds of formula (I) is determined in accordance with the following experimental method.
(§2) Chinese hamster ovary (CHO) cells expressing the human orexin-1 receptor and the human orexin-2 receptor, respectively, are grown in culture medium (Ham F-12 with L-Glutamine) containing 300 μg/ml G418, 100 U/ml penicillin, 100 μg/ml streptomycin and 10% heat inactivated fetal calf serum (FCS). The cells are seeded at 20′000 cells/well into 384-well black clear bottom sterile plates (Greiner). The seeded plates are incubated overnight at 37° C. in 5% CO2.
(§3) Human orexin-A as an agonist is prepared as 1 mM stock solution in MeOH: water (1:1), diluted in HBSS containing 0.1% bovine serum albumin (BSA), NaHCO3: 0.375g/l and 20 mM HEPES for use in the assay at a final concentration of 3 nM.
(§4) Antagonists are prepared as 10 mM stock solution in DMSO, then diluted in 384-well plates using DMSO followed by a transfer of the dilutions into in HBSS containing 0.1% bovine serum albumin (BSA), NaHCO3: 0.375 g/l and 20 mM HEPES. On the day of the assay, 50 μl of staining buffer (HBSS containing 1% FCS, 20 mM HEPES, NaHCO3: 0.375 g/l, 5 mM probenecid (Sigma) and 3 μM of the fluorescent calcium indicator fluo-4 AM (1 mM stock solution in DMSO, containing 10% pluronic) is added to each well. The 384-well cell-plates are incubated for 50 min at 37° C. in 5% CO2 followed by equilibration at rt for 30-120 min before measurement.
(§5) Within the Fluorescent Imaging Plate Reader (FLIPR2 or FLIPR Tetra, Molecular Devices), antagonists are added to the plate in a volume of 10 μl/well, incubated for 10 min and finally 10 μl/well of agonist is added. Fluorescence is measured for each well at 1 second intervals, and the height of each fluorescence peak is compared to the height of the fluorescence peak induced by 3 nM orexin-A with vehicle in place of antagonist. For each antagonist, the IC50 value (the concentration of compound needed to inhibit 50% of the agonistic response) is determined. The calculated IC50 values of the compounds may fluctuate depending on the daily cellular assay performance. Fluctuations of this kind are known to those skilled in the art.

[2] = molecular target: T2, human orexin-1 receptor (Homo sapiens, UniProt O43613); assay: Intracellular calcium measurements (FLIPR), CHO cells expressing the human orexin-1 receptor, orexin-A as agonist; format: cell-based; conditions: 3 nM orexin-A, read-out: OX1 IC50
T2 construct: expressed in transfected cells; host or cells: CHO cells (grown under G418 selection)
T2 sequence (O43613 1-425): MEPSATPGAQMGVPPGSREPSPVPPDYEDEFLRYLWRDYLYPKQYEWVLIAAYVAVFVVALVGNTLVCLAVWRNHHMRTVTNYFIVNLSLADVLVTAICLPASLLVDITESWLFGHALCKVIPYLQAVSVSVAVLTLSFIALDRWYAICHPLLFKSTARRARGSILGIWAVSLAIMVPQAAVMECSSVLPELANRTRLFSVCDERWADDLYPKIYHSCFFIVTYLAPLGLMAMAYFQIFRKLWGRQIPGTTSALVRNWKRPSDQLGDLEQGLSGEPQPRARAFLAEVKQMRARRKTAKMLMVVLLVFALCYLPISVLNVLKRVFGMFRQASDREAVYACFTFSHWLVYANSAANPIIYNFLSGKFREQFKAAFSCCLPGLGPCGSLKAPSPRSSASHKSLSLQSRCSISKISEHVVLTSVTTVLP
Experimental: as §1, §2, §3, §4, §5

| IC50 ([1]; measured on FLIPR2) [nM] | IC50 ([2]; measured on FLIPR2) [nM] | IC50 ([1]; measured on FLIPR Tetra) [nM] | IC50 ([2]; measured on FLIPR Tetra) [nM] | Compound |
| --- | --- | --- | --- | --- |
| 3 | 1.8 | – | – | Cc1nc2sccn2c1C(=O)NC[C@@H]1CCCCN1C(=O)c1nc(C2CC2)sc1-c1ccccc1F [Example 10, (S)-6-Methyl-imidazo[2,1-b]thiazole-5-carboxylic acid {1-[2-cyclopropyl-5-(2-fluoro-phenyl)-thiazole-4-carbonyl]-piperidin-2-ylmethyl}-amide] |
| 8.6 | 2.2 | – | – | Cc1ccc(-c2sc(C3CC3)nc2C(=O)N2CCCC[C@H]2CNC(=O)c2c(C)nc3sccn23)cc1 [Example 31, (S)-6-Methyl-imidazo[2,1-b]thiazole-5-carboxylic acid [1-(2-cyclopropyl-5-p-tolyl-thiazole-4-carbonyl)-piperidin-2-ylmethyl]-amide] |
| 7.7 | 5.1 | – | – | O=C(NC[C@@H]1CCCCN1C(=O)c1nc(C2CC2)sc1-c1ccccc1F)c1cccc2cccnc12 [Example 5, (S)-Quinoline-8-carboxylic acid {1-[2-cyclopropyl-5-(2-fluoro-phenyl)-thiazole-4-carbonyl]-piperidin-2-ylmethyl}-amide] |
| 16 | 19 | – | – | Cc1cccc(C(=O)NC[C@@H]2CCCCN2C(=O)c2nc(C3CC3)sc2-c2ccccc2F)c1 [Example 1, (S)—N-{1-[2-Cyclopropyl-5-(2-fluoro-phenyl)-thiazole-4-carbonyl]-piperidin-2-ylmethyl}-3-methyl-benzamide] |
| – | – | 19 | 15 | Cc1cccc(-c2sc(C3CC3)nc2C(=O)N2CCCC[C@H]2CNC(=O)c2cccc(F)c2C)c1 [Example 114, (S)—N-[1-(2-Cyclopropyl-5-m-tolyl-thiazole-4-carbonyl)-piperidin-2-ylmethyl]-3-fluoro-2-methyl-benzamide] |
| – | – | 17 | 123 | Cn1c(C(=O)NC[C@@H]2CCCCN2C(=O)c2nc(C3CC3)sc2-c2ccccc2)cc2occc21 [Example 131, (S)-4-Methyl-4H-furo[3,2-b]pyrrole-5-carboxylic acid [1-(2-cyclopropyl-5-phenyl-thiazole-4-carbonyl)-piperidin-2-ylmethyl]-amide] |
| 11 | 19 | – | – | O=C(NC[C@@H]1CCCCN1C(=O)c1nc(C2CC2)sc1-c1cccc(Cl)c1)c1noc2ccccc12 [Example 68, (S)-Benzo[d]isoxazole-3-carboxylic acid {1-[5-(3-chloro-phenyl)-2-cyclopropyl-thiazole-4-carbonyl]-piperidin-2-ylmethyl}-amide] |
| 15 | 25 | – | – | Cc1cccc(-c2sc(C3CC3)nc2C(=O)N2CCCC[C@H]2CNC(=O)c2cc3occc3n2C)c1 [Example 51, (S)-4-Methyl-4H-furo[3,2-b]pyrrole-5-carboxylic acid [1-(2-cyclopropyl-5-m-tolyl-thiazole-4-carbonyl)-piperidin-2-ylmethyl]-amide] |
| – | – | 22 | 18 | Cc1cccc(-c2sc(C3CC3)nc2C(=O)N2CCCC[C@H]2CNC(=O)c2cccc3c2CCO3)c1 [Example 107, (S)-2,3-Dihydro-benzofuran-4-carboxylic acid [1-(2-cyclopropyl-5-m-tolyl-thiazole-4-carbonyl)-piperidin-2-ylmethyl]-amide] |
| 15 | 23 | – | – | O=C(NC[C@@H]1CCCN1C(=O)c1nc(C2CC2)sc1-c1ccc(F)cc1)c1cccc2occc12 [Example 88, (S)-Benzofuran-4-carboxylic acid {1-[2-cyclopropyl-5-(4-fluoro-phenyl)-thiazole-4-carbonyl]-pyrrolidin-2-ylmethyl}-amide] |
| – | – | 20 | 14 | Cn1nc(C(=O)NC[C@@H]2CCCCN2C(=O)c2nc(C3CC3)sc2-c2ccccc2)c2ccccc21 [Example 100, (S)-1-Methyl-1H-indazole-3-carboxylic acid [1-(2-cyclopropyl-5-phenyl-thiazole-4-carbonyl)-piperidin-2-ylmethyl]-amide] |
| 26 | 7.2 | – | – | O=C(NC[C@@H]1CCCCN1C(=O)c1nc(C2CC2)sc1-c1cccc(C(F)(F)F)c1)c1cccc(Br)c1 [Example 71, (S)-3-Bromo-N-{1-[2-cyclopropyl-5-(3-trifluoromethyl-phenyl)-thiazole-4-carbonyl]-piperidin-2-ylmethyl}-benzamide] |
| – | – | 4.5 | 3.6 | O=C(NC[C@@H]1CCCCN1C(=O)c1nc(C2CC2)sc1-c1ccccc1)c1cnc2sccn12 [Example 96, (S)-Imidazo[2,1-b]thiazole-5-carboxylic acid [1-(2-cyclopropyl-5-phenyl-thiazole-4-carbonyl)-piperidin-2-ylmethyl]-amide] |
